According to patent publication US4621073A, “Cyclic peptides having somatostatin activity” (Hoechst Aktiengesellschaft, priority 1983, dated 1986):
Non-standard residues stand in square brackets, D forms with d. Residues, ends and D or L forms follow the SMILES beside them.

Tests used:
blood glucose = assay: potentiation of the hypoglycemic effect of insulin in adrenalectomized rats; type: in vivo, rat
gastric acid = assay: reduction of gastric acid after intravenous administration to the rat; type: in vivo; conditions: i.v. dose of 30 μg/kg
Method: The peptides according to the invention have the inhibitory properties of somatostatin, but their duration of action is considerably longer at lower doses. For example, after intravenous administration to the rat, these peptides reduce gastric acid with an ED50 of about 5 μg/kg. The reduction in gastric acid is maintained for 2 hours. […] A reduction in gastric acid is only brought about by infusing somatostatin. […] The new compounds can also be administered orally and intranasally. However, in these instances considerably higher doses are necessary because of the poorer absorption.

In the case of `C[C@@H](O)[C@@H]1NC(=O)[C@H](CCCCN)NC(=O)[C@@H](Cc2c[nH]c3ccccc23)NC(=O)[C@H](Cc2ccccc2)NC(=O)[C@@H]2CCCN2C(=O)[C@H](Cc2ccccc2)NC1=O` [cyclo-(Pro-Phe-D-Trp-Lys-Thr-Phe)] (cyclo(PF[dW]KTF)), the “effect on blood glucose” value (blood glucose; dose of as much as 0.318 μg/kg^-1. min^-1) is reported as “completely ineffective”.

`C[C@H](N)C(=O)NCC(=O)N[C@H]1CSSC[C@@H](C(=O)O)NC(=O)[C@H](CO)NC(=O)[C@H]([C@@H](C)O)NC(=O)[C@H](Cc2ccccc2)NC(=O)[C@H]([C@@H](C)O)NC(=O)[C@H](CCCCN)NC(=O)[C@H](Cc2c[nH]c3ccccc23)NC(=O)[C@H](Cc2ccccc2)NC(=O)[C@H](Cc2ccccc2)NC(=O)[C@H](CC(N)=O)NC(=O)[C@H](CCCCN)NC1=O` [somatostatin, Somatostatin] was tested, and the “effect on gastric acid” value (gastric acid) was “no effect whatever”.

With cyclo-(Aoc-Phe-D-Trp-Lys-Val-Phe) the “potentiation of the hypoglycemic effect of insulin, effect relative to cyclo-(Pro-Phe-D-Trp-Lys-Thr-Phe)” value (blood glucose) was “at least twice” and the “reduction of blood glucose” value (blood glucose; dose of 0.07 μg/kg^-1.min^-1) was “up to 24%”.
